Laboratory results from ChEMBL document CHEMBL4706524, “Discovery of sulfonyl hydrazone derivative as a new selective PDE4A and PDE4D inhibitor by lead-optimization approach on the prototype LASSBio-448: In vitro and in vivo preclinical studies” (Eur J Med Chem, 2020).

Key:
[1] = target: T1, 3',5'-cyclic-AMP phosphodiesterase 4B (Homo sapiens, UniProt Q07343); test: Inhibition of PDE4B (unknown origin)
[2] = target: T2, 3',5'-cyclic-AMP phosphodiesterase 4C (Homo sapiens, UniProt Q08493)
Description: Inhibition of PDE4C (unknown origin)

[3] = target: 3',5'-cyclic-AMP phosphodiesterase 4A (Homo sapiens, UniProt P27815); test: Inhibition of PDE4A (unknown origin)
Sequence of 3',5'-cyclic-AMP phosphodiesterase 4A (P27815 whole entry): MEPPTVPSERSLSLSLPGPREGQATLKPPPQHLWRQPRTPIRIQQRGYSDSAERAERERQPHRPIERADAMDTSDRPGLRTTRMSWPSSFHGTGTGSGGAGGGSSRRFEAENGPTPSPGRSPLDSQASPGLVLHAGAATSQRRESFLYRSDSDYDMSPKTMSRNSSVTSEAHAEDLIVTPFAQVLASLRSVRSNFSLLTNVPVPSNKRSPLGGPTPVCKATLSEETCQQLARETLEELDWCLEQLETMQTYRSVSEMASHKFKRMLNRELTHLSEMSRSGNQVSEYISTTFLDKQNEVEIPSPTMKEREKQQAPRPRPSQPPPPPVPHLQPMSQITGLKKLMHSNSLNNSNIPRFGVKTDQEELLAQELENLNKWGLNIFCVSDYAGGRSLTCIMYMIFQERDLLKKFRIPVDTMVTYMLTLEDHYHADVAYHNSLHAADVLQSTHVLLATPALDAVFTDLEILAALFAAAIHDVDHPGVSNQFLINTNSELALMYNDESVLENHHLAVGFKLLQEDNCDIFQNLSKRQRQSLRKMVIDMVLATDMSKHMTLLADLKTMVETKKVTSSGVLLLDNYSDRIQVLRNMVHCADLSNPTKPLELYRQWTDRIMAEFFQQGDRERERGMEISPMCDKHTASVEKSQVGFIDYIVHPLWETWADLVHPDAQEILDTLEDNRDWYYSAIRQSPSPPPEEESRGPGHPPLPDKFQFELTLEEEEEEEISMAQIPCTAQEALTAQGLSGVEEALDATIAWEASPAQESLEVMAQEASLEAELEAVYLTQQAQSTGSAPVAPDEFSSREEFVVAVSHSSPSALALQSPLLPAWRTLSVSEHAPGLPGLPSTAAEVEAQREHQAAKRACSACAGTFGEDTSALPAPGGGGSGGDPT

[4] = target: T3, 3',5'-cyclic-AMP phosphodiesterase 4D (Homo sapiens, UniProt Q08499)
T3 sequence (Q08499 whole entry): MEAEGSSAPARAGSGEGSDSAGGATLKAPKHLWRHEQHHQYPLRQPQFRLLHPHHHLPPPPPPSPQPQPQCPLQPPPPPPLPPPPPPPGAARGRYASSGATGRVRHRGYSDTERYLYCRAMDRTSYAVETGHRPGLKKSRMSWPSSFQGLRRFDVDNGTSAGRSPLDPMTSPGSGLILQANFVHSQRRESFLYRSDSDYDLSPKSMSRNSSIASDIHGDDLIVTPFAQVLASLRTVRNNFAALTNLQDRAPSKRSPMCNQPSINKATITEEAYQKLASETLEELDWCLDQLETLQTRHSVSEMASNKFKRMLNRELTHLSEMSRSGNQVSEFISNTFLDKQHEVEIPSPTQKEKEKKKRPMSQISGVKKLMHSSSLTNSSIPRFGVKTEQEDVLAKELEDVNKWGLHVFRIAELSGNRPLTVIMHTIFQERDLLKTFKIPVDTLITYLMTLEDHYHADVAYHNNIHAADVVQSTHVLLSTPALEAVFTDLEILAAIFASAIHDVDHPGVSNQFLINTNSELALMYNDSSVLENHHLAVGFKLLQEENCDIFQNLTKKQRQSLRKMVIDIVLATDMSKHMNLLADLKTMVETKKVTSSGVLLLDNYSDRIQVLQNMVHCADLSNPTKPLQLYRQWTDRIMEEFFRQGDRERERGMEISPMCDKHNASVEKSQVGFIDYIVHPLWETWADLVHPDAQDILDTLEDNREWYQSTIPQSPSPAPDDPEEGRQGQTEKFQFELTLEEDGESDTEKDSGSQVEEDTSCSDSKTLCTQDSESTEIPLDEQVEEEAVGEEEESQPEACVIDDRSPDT
Description: Inhibition of PDE4D (unknown origin)

[5] = test system: Mus musculus; test: Antiinflammatory activity against A/J mouse assessed as decrease in LPS-induced TNFalpha production in lungs at 3 umol/kg, po treated via gavage for 1 hr before LPS stimulation and measured after 24 hrs by ELISA relative to control; assay type: functional; settings: 25 h
[6] = organism: Homo sapiens; test: Inhibition of human recombinant PDE4A1A using FAM-cAMP as substrate measured after 1 hr by IMAP TR-FRET assay relative to control
[7] = organism: Homo sapiens; test: Inhibition of human recombinant PDE4A1A using FAM-cAMP as substrate at 10 uM measured after 1 hr by IMAP TR-FRET assay
[8] = target: T1, 3',5'-cyclic-AMP phosphodiesterase 4B; test: Inhibition of human recombinant PDE4B1 using FAM-cAMP as substrate at 10 uM measured after 1 hr by IMAP TR-FRET assay
[9] = target: T2, 3',5'-cyclic-AMP phosphodiesterase 4C; test: Inhibition of human recombinant PDE4C using FAM-cAMP as substrate at 10 uM measured after 1 hr by IMAP TR-FRET assay
[10] = test system: Mus musculus; test: Antiinflammatory activity against A/J mouse assessed as decrease in LPS-induced airway hyperreactivity at 3 umol/kg, po treated via gavage for 1 hr before LPS stimulation measured after 24 hrs by whole body plethysmography relative to control; assay type: functional; settings: 25 h
[11] = pampa, 8 h
[12] = target: T3, 3',5'-cyclic-AMP phosphodiesterase 4D; test: Inhibition of human recombinant PDE4D3 using FAM-cAMP as substrate at 10 uM measured after 1 hr by IMAP TR-FRET assay
[13] = Inhibition of human recombinant PDE4A1A using FAM-cAMP as substrate measured after 1 hr by IMAP TR-FRET assay
[14] = target: T3, 3',5'-cyclic-AMP phosphodiesterase 4D; test: Inhibition of human recombinant PDE4D3 using FAM-cAMP as substrate measured after 1 hr by IMAP TR-FRET assay relative to control
[15] = in vitro; settings: PAMPA

T1 sequence (Q07343 whole entry): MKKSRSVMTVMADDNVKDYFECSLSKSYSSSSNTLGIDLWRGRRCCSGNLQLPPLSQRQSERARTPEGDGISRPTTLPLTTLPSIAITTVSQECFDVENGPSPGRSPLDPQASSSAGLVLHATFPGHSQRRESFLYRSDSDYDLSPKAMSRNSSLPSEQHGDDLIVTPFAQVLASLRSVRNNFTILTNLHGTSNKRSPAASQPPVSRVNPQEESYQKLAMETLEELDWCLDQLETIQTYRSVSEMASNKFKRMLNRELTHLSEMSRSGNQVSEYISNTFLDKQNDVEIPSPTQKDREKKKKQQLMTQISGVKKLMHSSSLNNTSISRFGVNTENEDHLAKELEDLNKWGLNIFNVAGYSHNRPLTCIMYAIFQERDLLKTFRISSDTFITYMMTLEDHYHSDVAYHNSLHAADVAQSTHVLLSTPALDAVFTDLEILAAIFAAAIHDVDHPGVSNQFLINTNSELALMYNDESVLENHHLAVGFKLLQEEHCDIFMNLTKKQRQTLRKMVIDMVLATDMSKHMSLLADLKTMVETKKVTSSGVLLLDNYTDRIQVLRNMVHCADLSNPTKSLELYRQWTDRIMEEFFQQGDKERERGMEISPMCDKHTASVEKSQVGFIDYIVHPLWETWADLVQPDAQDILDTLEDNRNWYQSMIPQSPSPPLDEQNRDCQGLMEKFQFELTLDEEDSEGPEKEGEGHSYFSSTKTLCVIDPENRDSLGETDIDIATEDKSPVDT
T2 sequence (Q08493 whole entry): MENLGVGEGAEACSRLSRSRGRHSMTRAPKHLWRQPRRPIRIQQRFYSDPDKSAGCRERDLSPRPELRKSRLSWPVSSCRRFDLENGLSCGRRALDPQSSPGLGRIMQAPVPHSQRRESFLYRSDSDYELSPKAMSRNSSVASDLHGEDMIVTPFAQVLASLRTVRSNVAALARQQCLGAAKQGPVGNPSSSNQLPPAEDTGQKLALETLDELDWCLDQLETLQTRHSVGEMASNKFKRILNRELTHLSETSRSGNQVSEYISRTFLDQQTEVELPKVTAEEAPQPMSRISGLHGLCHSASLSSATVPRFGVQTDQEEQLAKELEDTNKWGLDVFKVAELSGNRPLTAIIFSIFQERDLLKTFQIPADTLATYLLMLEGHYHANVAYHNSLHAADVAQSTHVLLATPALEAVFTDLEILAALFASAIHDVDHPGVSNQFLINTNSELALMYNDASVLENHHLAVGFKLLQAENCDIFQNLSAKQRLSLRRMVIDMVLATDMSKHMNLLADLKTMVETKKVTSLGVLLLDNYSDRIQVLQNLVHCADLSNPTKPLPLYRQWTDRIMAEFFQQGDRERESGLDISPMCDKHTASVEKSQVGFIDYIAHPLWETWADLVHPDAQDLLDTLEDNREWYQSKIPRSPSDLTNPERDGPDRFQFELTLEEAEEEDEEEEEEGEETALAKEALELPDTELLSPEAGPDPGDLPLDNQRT

| IC50 [1] [nM] | IC50 [2] [nM] | IC50 [3] [nM] | IC50 [4] [nM] | Emax [6] [%] | inhibition [7] [%] | inhibition [8] [%] | inhibition [9] [%] | Drug absorption [11] [%] | inhibition [12] [%] | IC50 [13] [nM] | Emax [14] [%] | Papp at 8 h [15] [×10⁻⁶ cm/s] | Compound | inhibition in vivo at 3 µmol/kg [5] [%] | inhibition in vivo at 3 µmol/kg [10] [%] |
| --- | --- | --- | --- | --- | --- | --- | --- | --- | --- | --- | --- | --- | --- | --- | --- |
| 287 | 3860 | 310 | 3 |  |  |  |  |  |  |  |  |  | C[C@@H](Oc1ccc(CNC(=O)c2cccnc2Oc2ccc3c(c2)OCO3)c(F)c1)C(=O)O |  |  |
|  |  |  |  | 99 | 91.3 | 91.3 | 98.5 | 93.74 | 98.8 | 200 | 99 | 7.29 | COc1ccc([C@]2(C#N)CC[C@@H](C(=O)O)CC2)cc1OC1CCCC1 [CILOMILAST] | 98.9 | 94 |
